Experimental data taken from ChEMBL document CHEMBL1201862, “PubChem BioAssay data set” (2004).
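Protocol summary: plate cells (96-well), add compound at 5 concentrations, incubate 48 h, interpolate endpoints linearly. GI50: concentration for 50% inhibition of growth.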 The source made the active and inactive calls. Rule as the data show it: active = GI50 up to about 1.1 µM and inactive = higher.

Key:
Test in all cases: NCI tumour cell line growth inhibition, 48 h
NCI-H460 = test system: NCI-H460
SF-268 = test system: SF-268
NCI-H522 = test system: NCI-H522
HCC 2998 = test system: HCC 2998
RPMI-8226 = test system: RPMI-8226
NCI-H226 = test system: NCI-H226
Malme-3M = test system: Malme-3M
T47D = test system: T47D
EKVX = test system: EKVX
MOLT-4 = test system: MOLT-4
OVCAR-5 = test system: OVCAR-5
HL-60 = test system: HL-60
MDA-N = test system: MDA-N
BT-549 = test system: BT-549
UACC-257 = test system: UACC-257
SR = test system: SR
HT-29 = test system: HT-29
MCF7 = test system: MCF7
A549 = test system: A549
NCI-H23 = test system: NCI-H23
LOX IMVI = test system: LOX IMVI
NCI/ADR-RES = test system: NCI/ADR-RES
HCT-15 = test system: HCT-15
MDA-MB-435 = test system: MDA-MB-435
DU-145 = test system: DU-145
TK-10 = test system: TK-10
SN12C = test system: SN12C
CCRF-CEM = test system: CCRF-CEM
Hs-578T = test system: Hs-578T
KM12 = test system: KM12
786-0 = test system: 786-0
SK-MEL-2 = test system: SK-MEL-2
HCT-116 = test system: HCT-116
PC-3 = test system: PC-3
UO-31 = test system: UO-31
COLO 205 = test system: COLO 205
SK-MEL-28 = test system: SK-MEL-28
M14 = test system: M14
A498 = test system: A498
ACHN = test system: ACHN
MDA-MB-231 = test system: MDA-MB-231
HOP-62 = test system: HOP-62
U-251 = test system: U-251
SF-295 = test system: SF-295
K562 = test system: K562
SW-620 = test system: SW-620
SNB-19 = test system: SNB-19
OVCAR-3 = test system: OVCAR-3
SF-539 = test system: SF-539
OVCAR-8 = test system: OVCAR-8
SK-MEL-5 = test system: SK-MEL-5
OVCAR-4 = test system: OVCAR-4
CAKI-1 = test system: CAKI-1
UACC-62 = test system: UACC-62
SNB-75 = test system: SNB-75
SK-OV-3 = test system: SK-OV-3
HOP-92 = test system: HOP-92
IGROV-1 = test system: IGROV-1

Q: Which results are given for `Cc1nc(N)c(N2CCN(Cc3ccccc3)CC2)c(O)n1`?
A: GI50 (NCI-H460): > 100 µM (inactive); GI50 (SF-268): > 100 µM (inactive); GI50 (NCI-H522): > 100 µM (inactive); GI50 (HCC 2998): > 100 µM (inactive); GI50 (RPMI-8226): > 100 µM (inactive); GI50 (NCI-H226): > 100 µM (inactive); GI50 (Malme-3M): > 100 µM (inactive); GI50 (T47D): > 100 µM (inactive); GI50 (EKVX): > 100 µM (inactive); GI50 (MOLT-4): > 100 µM (inactive); GI50 (OVCAR-5): > 100 µM (inactive); GI50 (HL-60): > 100 µM (inactive); GI50 (MDA-N): > 100 µM (inactive); GI50 (BT-549): > 100 µM (inactive); GI50 (UACC-257): > 100 µM (inactive); GI50 (SR): > 100 µM (inactive); GI50 (HT-29): > 100 µM (inactive); GI50 (MCF7): > 100 µM (inactive); GI50 (A549): > 100 µM (inactive); GI50 (NCI-H23): > 100 µM (inactive); GI50 (LOX IMVI): > 100 µM (inactive); GI50 (NCI/ADR-RES): > 100 µM (inactive); GI50 (HCT-15): > 100 µM; GI50 (MDA-MB-435): > 100 µM (inactive); GI50 (DU-145): > 100 µM (inactive); GI50 (TK-10): > 100 µM (inactive); GI50 (SN12C): > 100 µM (inactive); GI50 (CCRF-CEM): > 100 µM (inactive); GI50 (Hs-578T): > 100 µM (inactive); GI50 (KM12): > 100 µM (inactive); GI50 (786-0): > 100 µM (inactive); GI50 (SK-MEL-2): > 100 µM (inactive); GI50 (HCT-116): > 100 µM (inactive); GI50 (PC-3): > 100 µM (inactive); GI50 (UO-31): > 100 µM (inactive); GI50 (COLO 205): > 100 µM (inactive); GI50 (SK-MEL-28): > 100 µM (inactive); GI50 (M14): > 100 µM (inactive); GI50 (A498): > 100 µM (inactive); GI50 (ACHN): > 100 µM (inactive); GI50 (MDA-MB-231): > 100 µM (inactive); GI50 (HOP-62): > 100 µM (inactive); GI50 (U-251): > 100 µM (inactive); GI50 (SF-295): > 100 µM (inactive); GI50 (K562): > 100 µM (inactive); GI50 (SW-620): > 100 µM (inactive); GI50 (SNB-19): > 100 µM (inactive); GI50 (OVCAR-3): > 100 µM (inactive); GI50 (SF-539): > 100 µM (inactive); GI50 (OVCAR-8): > 100 µM (inactive)

Q: How did the GI50 (NCI-H460) turn out when `COc1ccc(N2CCN(c3ccc4c(c3)NCC(=O)N4)CC2)cc1` was run?
A: The GI50 was > 100 µM (inactive).

Q: And the GI50 (SF-268)?
A: Its GI50 is 74.1 µM (inactive).

Q: What about the GI50 (SK-MEL-5) of the same compound?
A: The GI50 was 42.8 µM (inactive).

Q: What about the GI50 (OVCAR-4) of the same compound?
A: The GI50 was 32.1 µM (inactive).

Q: What about the GI50 (NCI-H522) of the same compound?
A: Its GI50 is 14.6 µM (inactive).

Q: And the GI50 (HCC 2998)?
A: Its GI50 is > 100 µM (inactive).

Q: What about the GI50 (RPMI-8226) of the same compound?
A: Its GI50 is 21.4 µM (inactive).

Q: What about the GI50 (NCI-H226) of the same compound?
A: Its GI50 is > 100 µM (inactive).

Q: What about the GI50 (Malme-3M) of the same compound?
A: The GI50 was 23.1 µM (inactive).

Q: And the GI50 (T47D)?
A: The GI50 was 15.4 µM (inactive).

Q: And the GI50 (EKVX)?
A: Its GI50 is 39.2 µM (inactive).

Q: And the GI50 (MOLT-4)?
A: Its GI50 is 60.7 µM (inactive).

Q: And the GI50 (OVCAR-5)?
A: Its GI50 is 54.7 µM (inactive).

Q: And the GI50 (HL-60)?
A: The GI50 was 17.1 µM (inactive).

Q: What about the GI50 (MDA-N) of the same compound?
A: The GI50 was > 100 µM (inactive).

Q: What about the GI50 (BT-549) of the same compound?
A: The GI50 was 34 µM (inactive).

Q: What about the GI50 (UACC-257) of the same compound?
A: Its GI50 is 95.5 µM (inactive).

Q: And the GI50 (SR)?
A: Its GI50 is 9.75 µM (inactive).

Q: What about the GI50 (HT-29) of the same compound?
A: The GI50 was > 100 µM (inactive).

Q: What about the GI50 (MCF7) of the same compound?
A: The GI50 was > 100 µM (inactive).

Q: What about the GI50 (A549) of the same compound?
A: The GI50 was 66.2 µM (inactive).

Q: And the GI50 (CAKI-1)?
A: The GI50 was 64.4 µM (inactive).

Q: And the GI50 (NCI-H23)?
A: The GI50 was 60.7 µM (inactive).

Q: And the GI50 (LOX IMVI)?
A: The GI50 was 41.4 µM (inactive).

Q: And the GI50 (NCI/ADR-RES)?
A: The GI50 was 21.9 µM (inactive).

Q: And the GI50 (HCT-15)?
A: The GI50 was 49.5 µM.

Q: What about the GI50 (MDA-MB-435) of the same compound?
A: Its GI50 is > 100 µM (inactive).

Q: What about the GI50 (DU-145) of the same compound?
A: Its GI50 is > 100 µM (inactive).

Q: And the GI50 (TK-10)?
A: Its GI50 is 41.8 µM (inactive).

Q: And the GI50 (SN12C)?
A: Its GI50 is 70.6 µM (inactive).

Q: What about the GI50 (UACC-62) of the same compound?
A: The GI50 was 25.3 µM (inactive).

Q: What about the GI50 (CCRF-CEM) of the same compound?
A: The GI50 was 29.7 µM (inactive).

Q: What about the GI50 (Hs-578T) of the same compound?
A: The GI50 was 25.3 µM (inactive).

Q: What about the GI50 (KM12) of the same compound?
A: Its GI50 is 21.3 µM (inactive).

Q: And the GI50 (SNB-75)?
A: Its GI50 is 26.9 µM (inactive).

Q: And the GI50 (786-0)?
A: Its GI50 is 32.2 µM (inactive).

Q: What about the GI50 (SK-MEL-2) of the same compound?
A: Its GI50 is 37.3 µM (inactive).

Q: And the GI50 (SK-OV-3)?
A: The GI50 was 91.6 µM (inactive).

Q: What about the GI50 (HCT-116) of the same compound?
A: The GI50 was 42.5 µM (inactive).

Q: What about the GI50 (PC-3) of the same compound?
A: Its GI50 is 36.2 µM (inactive).

Q: And the GI50 (UO-31)?
A: The GI50 was 26.9 µM (inactive).

Q: What about the GI50 (COLO 205) of the same compound?
A: Its GI50 is 43 µM (inactive).

Q: What about the GI50 (SK-MEL-28) of the same compound?
A: The GI50 was > 100 µM (inactive).

Q: What about the GI50 (M14) of the same compound?
A: The GI50 was 52.5 µM (inactive).

Q: What about the GI50 (ACHN) of the same compound?
A: The GI50 was 32.3 µM (inactive).

Q: And the GI50 (MDA-MB-231)?
A: Its GI50 is 34.4 µM (inactive).

Q: And the GI50 (HOP-92)?
A: The GI50 was 23.5 µM (inactive).

Q: And the GI50 (HOP-62)?
A: The GI50 was > 100 µM (inactive).

Q: And the GI50 (U-251)?
A: The GI50 was 25.6 µM (inactive).

Q: And the GI50 (SF-295)?
A: The GI50 was 69.2 µM (inactive).

Q: What about the GI50 (K562) of the same compound?
A: Its GI50 is 28.8 µM (inactive).

Q: What about the GI50 (SW-620) of the same compound?
A: Its GI50 is 61.5 µM (inactive).

Q: And the GI50 (SNB-19)?
A: The GI50 was 59.4 µM (inactive).

Q: What about the GI50 (OVCAR-3) of the same compound?
A: The GI50 was 28.8 µM (inactive).

Q: What about the GI50 (SF-539) of the same compound?
A: The GI50 was 23.6 µM (inactive).

Q: And the GI50 (OVCAR-8)?
A: Its GI50 is 26.7 µM (inactive).

Q: What about the GI50 (IGROV-1) of the same compound?
A: The GI50 was 45.8 µM (inactive).
